Legend:
3T3-L1 adipocytes [1] = test: Insulin-stimulated glucose uptake in 3T3-L1 adipocytes, measured by MRM; format: cell-based; settings: 3T3-L1 adipocytes treated 4 hr with 20 M (so in the source) of 4-HNE or H2O2 or both, then 100 nM insulin 60 min; FIG. 4 legend: 4-HNE 20 μM, H2O2 100 μM
Description: FIG. 4 graphically depicts glucose transport impairment in 3T3-L1 cells when exposed to 4-HNE (20 μM) and/or H2O2 (100 μM) for 4 hr.
(§1) GLUT4 carbonylations impair its function. To directly link the function impairment due to GLUT4 carbonylations to insulin resistance in vitro, GLUT4-SNAP fusion construct were generated and retroviral transduction in 3T3-L1 adipocytes were performed to overexpress the GLUT4-SNAP protein. Twenty-four hours after the transduction, the cells were treated with and without 20 μM of 4-HNE for an additional 4h. This 4-HNE dose was chosen because it was similar to the physiological levels and was non-toxic. […] 3T3-L1 adipocytes were treated with either 20 M of 4-HNE or H2O2 or the combination of both for 4 hr and were then stimulated with 100 nM insulin for 60 min. The glucose uptake was measured by an MRM method.

GLUT4-SNAP protein = test: Formation of K264-HNE GLUT4 adduct in 3T3-L1 cells overexpressing GLUT4-SNAP (MRM); format: cell-based; settings: 4-HNE 20 μM for 4 hr, FIG. 3
Source text: FIG. 3 provides typical MRM data showing an increase in the transitions of HNE-induced K264-HNE adduct (left panel) which were used to calculate the amounts of carbonylated GLUT4 (right panel). Four transitions of the GLUT4 peptide found in humans are shown. The sequence of the carbonylated GLUT4 peptide LTGWADVSGVLAELKDEK-4HNE (SEQ ID NO:1) is depicted.
Certain conditions such as overnutrition can lead to oxidative stress, and the generation of reactive aldehydes such as 4-HNE, which react with cysteine, lysine and histidine residues of proteins via Michael addition and Schiff base formation. 4-HNE can form HNE-Michaels adducts on GLUT4, the major insulin-facilitated glucose transporter in adipose tissue. 3T3-L1 adipocytes retrovirally transduced to overexpress the GLUT4-SNAP protein formed a K264-HNE GLUT4 adduct upon treatment with 4-HNE. The same K264-HNE GLUT4 adduct is elevated in the fat tissue of human pre-diabetic and diabetic individuals.
GLUT4 carbonylations impair its function. To directly link the function impairment due to GLUT4 carbonylations to insulin resistance in vitro, GLUT4-SNAP fusion construct were generated and retroviral transduction in 3T3-L1 adipocytes were performed to overexpress the GLUT4-SNAP protein. […] The glucose uptake was measured by an MRM method.

3T3-L1 adipocytes [2] = test: Toxicity of the 4-HNE dose to the treated cells; format: cell-based; settings: 20 μM of 4-HNE, 4h, transduced 3T3-L1 adipocytes
Description: as §1

adipocyte glucose uptake = test: Overnutrition-induced adipocyte glucose uptake impairment; format: cell-based; settings: adipocytes
Source text: (§2) Without wishing to be bound by any theory, compounds of Formula I-III form adducts with reactive aldehydes such as 4-HNE, thereby diverting 4-HNE from damaging proteins such as GLUT-4, by carbonylation. […] Restoration of GLUT-4 function results in enhancement or restoration of adipocyte insulin sensitivity and the resumption or enhancement of glucose uptake.

[3] = Adduct formation with the reactive aldehyde 4-HNE; settings: diverts 4-HNE from damaging GLUT-4 by carbonylation
Source text: as §2

Structure (SMILES) | glucose uptake reduced / decrease in the glucose uptake (3T3-L1 adipocytes [1]) [%] | formation of the K264-HNE adduct (GLUT4-SNAP protein) | toxicity of dose (3T3-L1 adipocytes [2]) | effect on glucose uptake impairment (adipocyte glucose uptake) | adduct formation with 4-HNE [3]
OO [Example H2O2] | 66 |  |  |  | 
CCCCCC(O)/C=C/C=O (stereo not drawn) [Example 4-HNE, 4-hydroxynonenal] | 32 | induced the formation of the K264-HNE adduct | non-toxic |  | 
Cl.Cl.NCCCNCCCC[C@H](N)C(=O)O [Example 4, (S)-2-amino-6-((3-aminopropyl)amino)hexanoic acid dihydrochloride] |  |  |  | reversing overnutrition-induced glucose uptake impairment | forms an adduct with 4-HNE

From patent US20210052532A1, “COMPOSITIONS AND METHODS FOR TREATMENT OF INSULIN RESISTANCE” (TEMPLE UNIVERSITY - OF THE COMMONWEALTH SYSTEM OF HIGHER …, priority 2018, published 2021)
